# Several values for one entry are separate records, joined by “and”; a condition that tells them apart may be missing. Equal entries are not always repeated. Inconclusive results are not listed.
# Test system: BDF1 mice, colon carcinoma 38 sc, T/C %
# Assay: NCI In Vivo Anticancer Drug Screen. Data for tumor model Colon Carcinoma 38 (subcutaneous) in B6D2F1 (BDF1) mice
# Details: endpoint: median tumor weight (est.), higher = larger tumour
# How it was run: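 Mice with transplanted tumors are treated with compound or vehicle. Survival or tumor size is then measured in both groups. The ratio of treated to control gives the reported figure.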
# [1] = dose: 12.5 mg/kg/injection, schedule: Q07DX002 (ip), vehicle: saline with Tween-80
# [2] = dose: 25.0 mg/kg/injection, schedule: Q07DX002 (ip), vehicle: saline with Tween-80
# [3] = dose: 50.0 mg/kg/injection, schedule: Q07DX002 (ip), vehicle: saline with Tween-80
# [4] = dose: 100.0 mg/kg/injection, schedule: Q07DX002 (ip), vehicle: saline with Tween-80
# [5] = dose: 200.0 mg/kg/injection, schedule: Q07DX002 (ip), vehicle: saline with Tween-80
# [6] = dose: 400.0 mg/kg/injection, schedule: Q07DX002 (ip), vehicle: saline with Tween-80
smiles,measurement,setting,value
Oc1cc2ccccc2c(-c2c(O)c(O)cc3ccccc23)c1O,T/C,[1],94 % of control
same,T/C,[2],119 % of control
same,T/C,[3],114 % of control
same,T/C,[4],81 % of control
same,T/C,[5],64 % of control
same,T/C,[6],64 % of control
O=[N+]([O-])O.O=[N+]([O-])O.[NH-]C1CCCCC1[NH-].[Pt+2] (stereo not given),T/C,"dose: 0.5 mg/kg/injection, schedule: Q07DX002 (ip), vehicle: dextrose",101 % of control
same,T/C,"dose: 2.0 mg/kg/injection, schedule: Q07DX002 (ip), vehicle: dextrose",62 % of control and 81 % of control
same,T/C,"dose: 4.0 mg/kg/injection, schedule: Q07DX002 (ip), vehicle: dextrose",62 % of control and 81 % of control
same,T/C,"dose: 8.0 mg/kg/injection, schedule: Q07DX002 (ip), vehicle: dextrose",27 % of control and 33 % of control
CC(Oc1ccccc1-c1ccccc1)C(=O)N(C)C (stereo not given),T/C,[4],79 % of control and 82 % of control
same,T/C,[5],74 % of control and 78 % of control
same,T/C,[6],56 % of control and 75 % of control
same,T/C,"dose: 800.0 mg/kg/injection, schedule: Q07DX002 (ip), vehicle: saline with Tween-80",49 % of control and 68 % of control
CN(C)c1nc(N(C)C)nc(N(C)C)n1,T/C,"dose: 12.5 mg/kg/injection, schedule: Q07DX003 (ip), vehicle: saline with Tween-80",68 % of control
same,T/C,"dose: 25.0 mg/kg/injection, schedule: Q07DX003 (ip), vehicle: saline with Tween-80",91 % of control
same,T/C,"dose: 50.0 mg/kg/injection, schedule: Q07DX003 (ip), vehicle: saline with Tween-80",112 % of control
same,T/C,"dose: 100.0 mg/kg/injection, schedule: Q07DX003 (ip), vehicle: saline with Tween-80",66 % of control
same,T/C,"dose: 200.0 mg/kg/injection, schedule: Q07DX003 (ip), vehicle: saline with Tween-80",65 % of control
C=C(C)C(=O)OC1C/C(CO)=C\C(O)C/C(C)=C/C2OC(=O)C(=C)C21 (stereo not given),T/C,"dose: 2.5 mg/kg/injection, schedule: Q07DX002 (ip), vehicle: saline + alcohol",105 % of control
same,T/C,"dose: 5.0 mg/kg/injection, schedule: Q07DX002 (ip), vehicle: saline + alcohol",117 % of control
same,T/C,"dose: 20.0 mg/kg/injection, schedule: Q07DX002 (ip), vehicle: saline + alcohol",120 % of control
same,T/C,"dose: 40.0 mg/kg/injection, schedule: Q07DX002 (ip), vehicle: saline + alcohol",119 % of control
COc1cc(Cl)ccc1C,T/C,[1],99 % of control
same,T/C,[2],71 % of control
same,T/C,[3],68 % of control
same,T/C,[4],82 % of control
same,T/C,[5],89 % of control
same,T/C,[6],89 % of control
CC(C)[NH-].CC(C)[NH-].[Cl][Pt+2][Cl],T/C,"dose: 3.12 mg/kg/injection, schedule: Q07DX002 (ip), vehicle: dextrose",15 % of control
same,T/C,"dose: 3.13 mg/kg/injection, schedule: Q07DX002 (ip), vehicle: dextrose",122 % of control
same,T/C,"dose: 6.25 mg/kg/injection, schedule: Q07DX002 (ip), vehicle: dextrose",77 % of control
same,T/C,"dose: 6.25 mg/kg/injection, schedule: Q07DX002 (ip), vehicle: other",104 % of control
same,T/C,"dose: 12.5 mg/kg/injection, schedule: Q07DX002 (ip), vehicle: dextrose",71 % of control
same,T/C,"dose: 12.5 mg/kg/injection, schedule: Q07DX002 (ip), vehicle: other",53 % of control
same,T/C,"dose: 25.0 mg/kg/injection, schedule: Q07DX002 (ip), vehicle: dextrose",79 % of control and 88 % of control
same,T/C,"dose: 25.0 mg/kg/injection, schedule: Q07DX002 (ip), vehicle: other",84 % of control
same,T/C,"dose: 50.0 mg/kg/injection, schedule: Q07DX002 (ip), vehicle: dextrose",58 % of control and 71 % of control
same,T/C,"dose: 50.0 mg/kg/injection, schedule: Q07DX002 (ip), vehicle: other",122 % of control
same,T/C,"dose: 100.0 mg/kg/injection, schedule: Q07DX002 (ip), vehicle: other",52 % of control

# From PubChem BioAssay AID212 (DTP/NCI, 2004)
